Patent publication US20230190707A1, “COMPOSITIONS AND METHODS FOR ENHANCING CANCER IMMUNOTHERAPY” (FRED HUTCHINSON CANCER CENTER, priority 2020, published 2023)

Experiments:
[1] = tested on: MC38 tumors; experiment: Therapeutic treatment with splicing compounds and anti-PD1, MC38 tumors; format: in vivo, mouse; conditions: three months following tumor implantation
Procedure: Animals were subcutaneously engrafted on bilateral flanks with tumor cells (MC38 1×10^6, B16-F10 0.5×10^6 and LLC 0.25×10^6 cells unless otherwise specified) on day 0, and treated continuously with splicing inhibitors (MS-023 50 mg/kg i.p., indisulam 25 mg/kg i.v. or vehicle) daily for 5 of 7 weekly days starting from day +3 of tumor challenge. […] Mice were weighed weekly for weight-based drug dosing.

[2] = tested on: B16-F10, MC38, and CT26 cells; experiment: In vivo tumor challenge with ex vivo indisulam-treated cells in syngeneic mice; design: species or system mouse
Procedure: Unless otherwise specified, cell lines were treated with splicing inhibitors at the indicated concentrations for 96 hours in vitro, harvested and washed three times with PBS in excess to remove all drug, and then used for downstream analyses and/or subsequent studies, including phenotyping, RNA-seq analyses, continued growth in vitro, or tumor challenge in vivo into syngeneic animals.
Unless otherwise specified, syngeneic B6 or Balb/c mice were engrafted subcutaneously on bilateral flanks with MC38, B16-F10, CT26 or LLC tumor cells at the following doses: MC38 10^6 cells, B16-F10 0.5×10^6 cells, CT26 0.25×10^6 cells, LLC 0.25×10^6 cells. Tumors were measured serially twice or three times weekly and tumor volumes were estimated by length×width×height. Animals were monitored daily for survival and weighed twice weekly. Experimental endpoints mandating euthanasia were approved by the IACUC and included: animal lethargy, severe kyphosis or evidence of pain, difficulty with ambulation or feeding, tumor ulceration>1 cm or bleeding tumor, evidence of infected tumor, tumor volumes exceeding 2.5 cm^3, or animal total body weight loss>10% from baseline.

[3] = molecular target: H-2K^b (Mus musculus, UniProt P01901); experiment: MHC I immunoprecipitation and LC-MS/MS, H-2K^b; format: cell-based
From the text: Peptide-MHC complexes were isolated as previously described (Abelin, J. G., et al. (2017). Mass Spectrometry Profiling of HLA-Associated Peptidomes in Mono-allelic Cells Enables More Accurate Epitope Prediction. Immunity 46, 315-326, incorporated herein by reference in its entirety), with the following modifications: anti-mouse H-2D^b (clone B22-249.R1, CedarLane laboratories, Cat. CL9001AP) or H-2K^b (clone Y-3, BioXCell Cat. BE0172) non-covalently linked to GammaBind Plus Sepharose beads were co-incubated with soluble lysates overnight. […]
Desalted, dried samples enriched for MHC peptides were resolubilized in 8 uL 0.10% TFA and 3 uL were loaded onto a packed-in-emitter 12 cm/75 um ID/3 um C18 particles column (Nikkyo Technos Co., Ltd. Japan). […] Precursor mass spectra were recorded from m/z 300-1500 m/z range at 60,000 resolution. […] MS/MS spectra were recorded at 30,000 resolution and lowest mass set at m/z 110. […] All experiments were recorded in FT-mode.
Mass spectra from all MHC immunoprecipitations were analyzed using Proteome Discoverer v2.4.1.15, with the following workflow. […]

Sequence of H-2K^b (P01901 22-369 limits assumed): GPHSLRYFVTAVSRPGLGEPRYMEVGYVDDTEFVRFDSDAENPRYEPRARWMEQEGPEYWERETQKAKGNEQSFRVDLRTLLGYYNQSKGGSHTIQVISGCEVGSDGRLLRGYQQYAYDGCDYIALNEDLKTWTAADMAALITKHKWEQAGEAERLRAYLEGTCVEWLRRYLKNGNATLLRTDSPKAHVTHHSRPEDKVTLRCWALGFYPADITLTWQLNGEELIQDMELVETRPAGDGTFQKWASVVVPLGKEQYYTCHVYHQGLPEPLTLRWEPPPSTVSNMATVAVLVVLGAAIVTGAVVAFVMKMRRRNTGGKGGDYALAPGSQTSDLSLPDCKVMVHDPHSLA

Row | SMILES | mice alive and tumor-free [1] | tumor growth following engraftment into syngeneic, immunocompetent mice ([2]; cells treated ex vivo 1 μM four days, drug washout) | animal survival ([2]; exposure to increasing drug concentrations (CT26; 10, 100, 1000 nM, 96 hours)) | peptides only recovered from indisulam-treated samples ([3]; B16-F10 cells) | bound peptides arising from mRNA isoforms specifically promoted by indisulam treatment ([3]; intersection with RNA-seq)
1 | CC(C)Oc1ccc(-c2c[nH]cc2CN(C)CCN)cc1 [MS-023] | 25% |  |  |  | 
2 | NS(=O)(=O)c1ccc(S(=O)(=O)Nc2cccc3c(Cl)c[nH]c23)cc1 [indisulam] |  | strikingly durable growth inhibition | improved animal survival | 366 | 28
